This note sets out measurements from ChEMBL document CHEMBL3390848, “Affinity selection and sequence-activity relationships of HIV-1 membrane fusion inhibitors directed at the drug-resistant variants” (Medchemcomm, 2010).

Residues, ends and D or L forms follow the SMILES beside them.

In experiment [1] the test system is Human immunodeficiency virus 1. As to the kind of experiment: Antiviral activity against HIV1 NL4-3 harboring gp41 D36G mutant infected in human HeLa cells expressing CD4-LTR-beta-gal assessed as inhibition of viral replication after 48 hrs by MAGI assay. It is filed as functional, organism-based.
Experiment [2] concerns Human immunodeficiency virus 1. The experiment can be described thus: Thermal stability of HIV1 envelope glycoprotein gp41 His-tagged N-terminal heptad repeat N36 N43D mutant-drug complex assessed as thermal unfolding transition state by measuring molar ellipticity at 4 to 90 degC by circular dichroic spectra analysis.
Experiment [3] relates to Human immunodeficiency virus 1. As to the kind of experiment: Binding affinity to HIV1 His-tagged N-terminal heptad repeat of envelope glycoprotein gp41 assessed as recovery of N36-drug complex at 6 uM after 2 hrs by LC-MS analysis.
The test system of experiment [4] is Human immunodeficiency virus 1. As to the kind of experiment: Binding affinity to HIV1 His-tagged N-terminal heptad repeat of envelope glycoprotein gp41 assessed as recovery of N36-drug complex at 1 uM after 2 hrs by LC-MS analysis.
Experiment [5] relates to Human immunodeficiency virus 1. As to the kind of experiment: Binding affinity to HIV1 His-tagged N-terminal heptad repeat of envelope glycoprotein gp41 assessed as recovery of N36-drug complex at 10 uM after 2 hrs by LC-MS analysis.
Experiment [6] concerns Human immunodeficiency virus 1. The experiment can be described thus: Binding affinity to HIV1 His-tagged N-terminal heptad repeat of envelope glycoprotein gp41 assessed as recovery of N36 N43D mutant-drug complex after 2 hrs by LC-MS analysis. Details: concentration or dose not given beside the values.
For experiment [7], the system named is Envelope glycoprotein gp160 (Human immunodeficiency virus 1), Q72502 [V38A]. As to the kind of experiment: Thermal stability of HIV1 envelope glycoprotein gp41 His-tagged N-terminal heptad repeat N36 V38A mutant-drug complex assessed as thermal unfolding transition state by measuring molar ellipticity at 4 to 90 degC by circular dichroic spectra analysis.
Experiment [8] concerns Human immunodeficiency virus 1. As to the kind of experiment: Thermal stability of HIV1 envelope glycoprotein gp41 His-tagged N-terminal heptad repeat N36-drug complex assessed as thermal unfolding transition state by measuring molar ellipticity at 4 to 90 degC by circular dichroic spectra analysis.
For experiment [9], the system named is Human immunodeficiency virus 1. The experiment can be described thus: Binding affinity to HIV1 His-tagged N-terminal heptad repeat of envelope glycoprotein gp41 assessed as recovery of N36-drug complex at 0.6 uM after 2 hrs by LC-MS analysis.
The test system of experiment [10] is Envelope glycoprotein gp160 (Human immunodeficiency virus 1), Q72502 [V38A]. As to the kind of experiment: Binding affinity to HIV1 His-tagged N-terminal heptad repeat of envelope glycoprotein gp41 assessed as recovery of N36 V38A mutant-drug complex after 2 hrs by LC-MS analysis. Further details: concentration or dose not given beside the values.
Experiment [11] shares this test system. As to the kind of experiment: Binding affinity to HIV1 His-tagged N-terminal heptad repeat of envelope glycoprotein gp41 assessed as recovery of N54 V38A mutant-drug complex after 2 hrs by LC-MS analysis. Details: concentration or dose not given beside the values.
Experiment [12] has as its system Human immunodeficiency virus 1. As to the kind of experiment: Thermal stability of HIV1 envelope glycoprotein gp41 His-tagged N-terminal heptad repeat N54 N43D mutant-drug complex assessed as thermal unfolding transition state by measuring molar ellipticity at 4 to 90 degC by circular dichroic spectra analysis.
In experiment [13] the test system is Envelope glycoprotein gp160 (Human immunodeficiency virus 1), Q72502 [V38A]. As to the kind of experiment: Thermal stability of HIV1 envelope glycoprotein gp41 His-tagged N-terminal heptad repeat N54 V38A mutant-drug complex assessed as thermal unfolding transition state by measuring molar ellipticity at 4 to 90 degC by circular dichroic spectra analysis.
For experiment [14], the system named is Human immunodeficiency virus 1. The experiment can be described thus: Binding affinity to HIV1 His-tagged N-terminal heptad repeat of envelope glycoprotein gp41 assessed as recovery of N54 N43D mutant-drug complex after 2 hrs by LC-MS analysis. Details: concentration or dose not given beside the values.
For experiment [15], the system named is Human immunodeficiency virus 1. As to the kind of experiment: Thermal stability of HIV1 envelope glycoprotein gp41 His-tagged N-terminal heptad repeat N54-drug complex assessed as thermal unfolding transition state by measuring molar ellipticity at 4 to 90 degC by circular dichroic spectra analysis.
Experiment [16] concerns Human immunodeficiency virus 1. As to the kind of experiment: Binding affinity to HIV1 His-tagged N-terminal heptad repeat of envelope glycoprotein gp41 assessed as recovery of N54-drug complex after 2 hrs by LC-MS analysis. Further details: concentration or dose not given beside the values.

For `CC[C@H](C)[C@H](NC(=O)[C@H](CC(C)C)NC(=O)[C@H](CCC(=O)O)NC(=O)[C@H](CCC(=O)O)NC(=O)[C@@H](NC(=O)[C@H](CCCCN)NC(=O)[C@H](CCCCN)NC(=O)[C@@H](NC(=O)[C@H](Cc1ccc(O)cc1)NC(=O)[C@H](CCC(=O)O)NC(=O)[C@H](CCC(=O)O)NC(=O)[C@@H](NC(=O)[C@H](CCCCN)NC(=O)[C@H](CCCCN)NC(=O)[C@H](CC(=O)O)NC(=O)[C@H](Cc1c[nH]c2ccccc12)NC(=O)[C@H](CCC(=O)O)NC(=O)[C@H](CCC(=O)O)NC(=O)[C@H](Cc1c[nH]c2ccccc12)NC(C)=O)[C@@H](C)CC)[C@@H](C)O)[C@@H](C)CC)C(=O)N[C@@H](CCCCN)C(=O)N[C@@H](CCCCN)C(=O)N[C@@H](C)C(=O)N[C@@H](CCC(=O)O)C(=O)N[C@@H](CCC(=O)O)C(=O)N[C@@H](CCC(N)=O)C(=O)N[C@@H](CCC(N)=O)C(=O)N[C@@H](CCCCN)C(=O)N[C@@H](CCCCN)C(=O)N[C@@H](CC(N)=O)C(=O)N[C@@H](CCC(=O)O)C(=O)N[C@@H](CCC(=O)O)C(=O)N[C@@H](CCC(=O)O)C(=O)N[C@@H](CC(C)C)C(=O)N[C@@H](CCCCN)C(=O)N[C@@H](CCCCN)C(N)=O` (Ac-WEEWDKKIEEYTKKIEELIKKAEEQQKKNEEELKK-NH2), in experiment [1], the concentration for a half-maximal effect (EC50) came out at 0.2 nM. Also, the figures for the Tm in [2], in [7] and in [8] were 74.4 °C, 76.1 °C and 86.4 °C, respectively. Moreover, the Activity stood at 22.5% in experiment [3]; 11.5% in experiment [4]; 30.7% in [5]; 12.9% in [6]; 5.3% in experiment [9]; 11.4% in experiment [10].
With `CC[C@H](C)[C@H](NC(=O)[C@H](CC(C)C)NC(=O)[C@H](CCC(=O)O)NC(=O)[C@H](CCC(=O)O)NC(=O)[C@@H](NC(=O)[C@H](CCCCN)NC(=O)[C@H](CCCCN)NC(=O)[C@@H](NC(=O)[C@H](Cc1ccc(O)cc1)NC(=O)[C@H](CCC(=O)O)NC(=O)[C@H](CCC(=O)O)NC(=O)[C@@H](NC(=O)[C@H](CCCCN)NC(=O)[C@H](CCCCN)NC(=O)[C@H](CC(=O)O)NC(=O)[C@H](Cc1c[nH]c2ccccc12)NC(=O)[C@H](CCC(=O)O)NC(=O)[C@H](CCC(=O)O)NC(=O)[C@H](Cc1c[nH]c2ccccc12)NC(C)=O)[C@@H](C)CC)[C@@H](C)O)[C@@H](C)CC)C(=O)N[C@@H](CCCCN)C(=O)N[C@@H](CCCCN)C(=O)N[C@@H](CC(C)C)C(=O)N[C@@H](CCC(=O)O)C(=O)N[C@@H](CCC(=O)O)C(=O)N[C@@H](CCC(N)=O)C(=O)N[C@@H](CCC(N)=O)C(=O)N[C@@H](CCCCN)C(=O)N[C@@H](CCCCN)C(=O)N[C@@H](CC(N)=O)C(=O)N[C@@H](CCC(=O)O)C(=O)N[C@@H](CCC(=O)O)C(=O)N[C@@H](CCC(=O)O)C(=O)N[C@@H](CC(C)C)C(=O)N[C@@H](CCCCN)C(=O)N[C@@H](CCCCN)C(N)=O` (Ac-WEEWDKKIEEYTKKIEELIKKLEEQQKKNEEELKK-NH2), the EC50 in experiment [1] was determined as 0.2 nM. Besides, the values for the Tm in experiment [2], in experiment [7] and in [8] were 80 °C, 75 °C and 83.2 °C, respectively. For the same molecule, the Activity in experiment [3] amounted to 7.6%; in [4] it was 11.3%; in experiment [5] it was 4.7%; in experiment [6], 12.9%; in experiment [9], 6.9%; in experiment [10], 10.3%.
As to `CC[C@H](C)[C@H](NC(=O)[C@H](CC(C)C)NC(=O)[C@H](CCC(=O)O)NC(=O)[C@H](CCC(=O)O)NC(=O)[C@@H](NC(=O)[C@H](CC(C)C)NC(=O)[C@H](CO)NC(=O)[C@@H](NC(=O)[C@H](Cc1ccc(O)cc1)NC(C)=O)[C@@H](C)O)[C@@H](C)CC)C(=O)N[C@@H](CCCCN)C(=O)N[C@@H](CCCCN)C(=O)N[C@@H](CO)C(=O)N[C@@H](CCC(=O)O)C(=O)N[C@@H](CCC(=O)O)C(=O)N[C@@H](CCC(N)=O)C(=O)N[C@@H](CCC(N)=O)C(=O)N[C@@H](CCCCN)C(=O)N[C@@H](CCCCN)C(=O)N[C@@H](CC(N)=O)C(=O)N[C@@H](CCC(=O)O)C(=O)N[C@@H](CCC(=O)O)C(=O)N[C@@H](CCC(=O)O)C(=O)N[C@@H](CC(C)C)C(=O)N[C@@H](CCCCN)C(=O)N[C@@H](CCCCN)C(=O)N[C@@H](CC(C)C)C(=O)N[C@@H](CCC(=O)O)C(=O)N[C@@H](CCC(=O)O)C(=O)N[C@@H](Cc1c[nH]c2ccccc12)C(=O)N[C@@H](C)C(=O)N[C@@H](CCCCN)C(=O)N[C@@H](CCCCN)C(=O)N[C@@H](Cc1c[nH]c2ccccc12)C(=O)N[C@@H](CC(N)=O)C(=O)N[C@@H](Cc1c[nH]c2ccccc12)C(=O)N[C@@H](Cc1ccccc1)C(N)=O` (Ac-YTSLIEELIKKSEEQQKKNEEELKKLEEWAKKWNWF-NH2), the figures for the Activity in experiment [11], in experiment [14] and in experiment [16] were 9.3%, 7.4% and 8.2%, respectively. Besides, the EC50 in experiment [1] is 1.1 nM. The results for the Tm in experiment [12], in experiment [13] and in [15] were 65.3 °C, 60 °C and 78.8 °C, respectively.
As for `CC[C@H](C)[C@H](NC(=O)[C@H](CC(C)C)NC(=O)[C@H](CCC(=O)O)NC(=O)[C@H](CCC(=O)O)NC(=O)[C@@H](NC(=O)[C@H](CC(C)C)NC(=O)[C@H](CO)NC(=O)[C@@H](NC(=O)[C@H](Cc1ccc(O)cc1)NC(C)=O)[C@@H](C)O)[C@@H](C)CC)C(=O)N[C@@H](CCCCN)C(=O)N[C@@H](CCCCN)C(=O)N[C@H](C(=O)N[C@@H](CCC(=O)O)C(=O)N[C@@H](CCC(=O)O)C(=O)N[C@@H](CCC(N)=O)C(=O)N[C@@H](CCC(N)=O)C(=O)N[C@@H](CCCCN)C(=O)N[C@@H](CCCCN)C(=O)N[C@@H](CC(N)=O)C(=O)N[C@@H](CCC(=O)O)C(=O)N[C@@H](CCC(=O)O)C(=O)N[C@@H](CCC(=O)O)C(=O)N[C@@H](CC(C)C)C(=O)N[C@@H](CCCCN)C(=O)N[C@@H](CCCCN)C(=O)N[C@@H](CC(C)C)C(=O)N[C@@H](CCC(=O)O)C(=O)N[C@@H](CCC(=O)O)C(=O)N[C@@H](Cc1c[nH]c2ccccc12)C(=O)N[C@@H](C)C(=O)N[C@@H](CCCCN)C(=O)N[C@@H](CCCCN)C(=O)N[C@@H](Cc1c[nH]c2ccccc12)C(=O)N[C@@H](CC(N)=O)C(=O)N[C@@H](Cc1c[nH]c2ccccc12)C(=O)N[C@@H](Cc1ccccc1)C(N)=O)[C@@H](C)O` (Ac-YTSLIEELIKKTEEQQKKNEEELKKLEEWAKKWNWF-NH2), the Activity in experiment [11] was found to be 8.1%; in experiment [14], 6.1%; in [16], 10%. In experiment [1], the concentration giving a half-maximal response (EC50) was 0.4 nM. Moreover, the Tm is 62.4 °C in experiment [12], 57.8 °C in experiment [13] and 75.9 °C in [15].
For the molecule `CC[C@H](C)[C@H](NC(=O)[C@H](CC(C)C)NC(=O)[C@H](CCC(=O)O)NC(=O)[C@H](CCC(=O)O)NC(=O)[C@@H](NC(=O)[C@H](CC(C)C)NC(=O)[C@H](CO)NC(=O)[C@@H](NC(=O)[C@H](Cc1ccc(O)cc1)NC(C)=O)[C@@H](C)O)[C@@H](C)CC)C(=O)N[C@@H](CCCCN)C(=O)N[C@@H](CCCCN)C(=O)N[C@@H](Cc1c[nH]c2ccccc12)C(=O)N[C@@H](CCC(=O)O)C(=O)N[C@@H](CCC(=O)O)C(=O)N[C@@H](CCC(N)=O)C(=O)N[C@@H](CCC(N)=O)C(=O)N[C@@H](CCCCN)C(=O)N[C@@H](CCCCN)C(=O)N[C@@H](CC(N)=O)C(=O)N[C@@H](CCC(=O)O)C(=O)N[C@@H](CCC(=O)O)C(=O)N[C@@H](CCC(=O)O)C(=O)N[C@@H](CC(C)C)C(=O)N[C@@H](CCCCN)C(=O)N[C@@H](CCCCN)C(=O)N[C@@H](CC(C)C)C(=O)N[C@@H](CCC(=O)O)C(=O)N[C@@H](CCC(=O)O)C(=O)N[C@@H](Cc1c[nH]c2ccccc12)C(=O)N[C@@H](C)C(=O)N[C@@H](CCCCN)C(=O)N[C@@H](CCCCN)C(=O)N[C@@H](Cc1c[nH]c2ccccc12)C(=O)N[C@@H](CC(N)=O)C(=O)N[C@@H](Cc1c[nH]c2ccccc12)C(=O)N[C@@H](Cc1ccccc1)C(N)=O` (Ac-YTSLIEELIKKWEEQQKKNEEELKKLEEWAKKWNWF-NH2), the Activity in experiment [11] came out at 7.7%; in experiment [14], 7.6%; in experiment [16], 5.2%. The EC50 in experiment [1] was 20 nM. For the same molecule, the midpoint of thermal melting (Tm) in experiment [12] stood at 61.4 °C; in experiment [13], 53.2 °C; in [15], 62 °C.
